Assay: Food intake test in food-deprived rats (anorectic activity)
Format: in vivo, Male Sprague-Dawley derived rats
Details: rat, 32.0 mg/kg i.g., 24 h food-deprived, food given 30 min after dosing; for Food Intake, % of control, 1 Hr.: 1 hour intake; for Food Intake, % of control, 2 Hr.: 2 hour intake; for Food Intake, % of control, 6 Hr.: 6 hour intake
Description: Male Sprague-Dawley derived rats, Charles River Breeders (Portage, MI), weighing between 200-400 grams at the time of testing, were employed in the food intake studies and water intake studies. The rats were housed individually and kept on a 12 hour light-dark-light cycle. The room temperature ranged between 23°-25° C. The rats employed in food intake testing were food deprived on the day preceding testing and were divided into experimental groups that were matched on the basis of average daily food intake and body weight. At approximately 24 hour post-deprivation, the rats were administered a test sample containing as the active ingredient a compound of the present invention. All test samples employed herein were prepared and homogenized in a vehicle of normal saline (to which a few drops of PG/Tween 80 was added). The test samples were administered at an injection volume of 2 ml/kg, unless otherwise stated. Thirty minutes following administration of the test samples, pre-weighed food jars containing ground meal were placed in the rats' cages. (Prior to testing the rats were given ground meal for a minimum of 3 days to familiarize the rats with this food.) After 1, 2 and 6 hours of food access, the jars were removed, weighed and returned to the rats' cages providing a 1, 2 and 6 hours intake measurement. […] The results obtained are represented in Table I as a percent of control values. A student t test was used for making statistical comparisons, and the p-values are based upon two-tailed comparisons. The compound employed as the active ingredient on the test sample is indicated by the example number which describes its preparation.

| SMILES | Food Intake, % of control, 1 Hr. | Food Intake, % of control, 2 Hr. | Food Intake, % of control, 6 Hr. |
| --- | --- | --- | --- |
| CN(C)CCNC(=O)c1cnc2c3ccccc3ccn2c1=O [Example 5] | 82.4 % of control | 87.5 % of control | 88.3 % of control |
| Cl.Cl.NCc1cnc2c3ccccc3ccn2c1=O [Example 3, 3-(aminomethyl)-4H-pyrimido[2,1-a]isoquinolin-4-one, dihydrochloride] | 51.3 % of control | 71.4 % of control | 92.3 % of control |
| CC(=O)OCc1cnc2c3ccccc3ccn2c1=O [Example 2, 3-(hydroxymethyl)-4H-pyrimido[2,1-a]isoquinolin-4-one acetate] | 51.4 % of control | 67.1 % of control | 89.8 % of control |
| CCN(CC)CCOCc1cnc2c3ccccc3ccn2c1=O.Cl.Cl [Example 4, 3-[[2-(diethylamino)ethoxy]methyl]-4H-pyrimido[2,1-a]isoquinolin-4-one dihydrochloride] | 70.8 % of control | 80.8 % of control | 90.9 % of control |
| O=c1c(CO)cnc2c3ccccc3ccn12 [Example 1, 3-(hydroxymethyl)-4H-pyrimido [2,1-a]isoquinolin-4-one] | 61.8 % of control | 77.4 % of control | 90.4 % of control |

Reference: patent publication US4661592A, “4H-pyrimido[2,1-a]isoquinolin-4-one derivatives” (G. D. Searle & Co., priority 1984, dated 1987)
